{"source": "patent US20180022734A1", "about": "(Sound Biopharmaceuticals Ltd., priority 2015, published 2018)", "key": {"[1]": {"assay": "Acute toxicity test: maximum tolerance dosage (MTD) determination", "assay_type": "in vivo, BALB/c mice", "protocol": "Methods: Femal BALB/c mice, 4-5 weeks old, weighted greater than 17 g, were used for the test. […] The body weights and conditions of the mice were recorded.\nIn contrast, the body weights of mice in compound 2 group increased 6.0% in average.\nTo further explore the toxicity of the compounds, blood was collected after 14-day treatment of drugs and critical biochemical index were analyzed."}, "[2]": {"assay": "Pharmacokinetics and organ distribution after intravenous administration of Sunitinib, Compound 1 and Compound 2 in mice", "design": "AUCiv: unit not given beside the values", "conditions": "mice", "excerpt": "Relative Exposure(RE)=AUCi sample/AUCi control\nAUCi—area under curve for the i^th organ or tissue; RE>1 indicates targeting at the organ or tissue, with larger RE indicating greater targeting; RE≦1 indicates non-targeting.\nRTE refers to the multiple of the percent of drug content in a tissue of sample group with respect to total drug amount in the body vs. that in a control group. Positive RTE values indicate enhanced targeting effects and the more positive the more the multiple of enhancement and the more the enhanced targeting. In contrast, negative RTE values indicate reduced targeting effects. Value 0 indicate no influence to the tissue.\n0.083 h, 0.25 h, 0.5 h, 1 h, 3 h, 8 h post injection, blood was taken by eyeball removal and the mice were sacrificed by cervical dislocation. Tissues were perfused with normal saline and livers and kidneys were removed and cleaned with normal saline. The blood samples were centrifuged to obtain supernatants and stored at −20° C. 50 μL plasma sample and 50 μL internal standard (clozapine) working solution was vortexed with 300 μL MeOH and then centrifuged. 150 μL upper organic phase was obtained and mixed with 150 μL water, followed by centrifugation. 10 μL supernatant was sampled for analysis. The tissue samples were weighted and mixed homogeneously with 10 times weight of water. Since the samples were 10-time diluted, the concentration of the tissue would be 10 times the results determined. The heart tissue was 5-time diluted. 100 μL homogenate was mixed with 50 μL internal standard (clozapine) working solution and 300 μL MeOH and then centrifuged. 150 μL upper organic phase was obtained and mixed with 150 μL water, followed by centrifugation. 10 μL supernatant was sampled for analysis."}, "[3]": {"tested_on": "A549; NCI-H460; 786-O; Caki-1; HT-29; MCF-7", "assay": "72 hour cytotoxicity (CCK8) in different cell lines", "assay_type": "cell-based, human", "conditions": "72 hours, CCK8; FIG. 5a-f", "excerpt": "A549 human non-small cell lung cancer cell line, NCI-H460 human non-small cell lung cancer cell line, 786-O human renal cell line, Caki-1 human renal cell line, HT-29 human colon cancer cell line, MDA-MB-231 human breast cancer cell line, and MCF-7 human breast cancer cell line was purchased from Chinese Academy of Science Shanghai Branch. PLC/PRF-5 human hepatoma cell line and Hepal-6 mouse hepatoma cell line were obtained from Institute of Biochemistry and Cell Biology, SIBS, CAS (SIBCB). Cell lines A549, Caki-1, HT-29, MDA-MB-231, MCF-7, PLC/PRF-5 and Hepal-6 were cultured in DMEM medium (Gibco, Life Technologies, China) and cell lines NCI-H460 and 786-O were cultured in RPMI-1640 medium (Gibco, Life Technologies, China). 10% HI fetal bovine serum was purchased from Gibco, Life Technologies, USA and 1% penicillin/streptomycin was obtained from Hyclone.\nApprox. 2,000 cells in 50 μL complete medium were plated on each well of a 96-well plate and incubated at 37° C., 5% CO2 overnight. Drugs at concentrations of 0.02 to 10 μM were dissolved in 0.1% DMSO, followed by addition into each well. After incubation for 72 hours, 10 μL CCK8 (Dojindo) was added into each well, followed by incubation at 37° C. for another 4 hours. The OD values were obtained by TECAN Microplate Reader at 450 nm.\n(§1) For in vitro tests, compounds were directly dissolved in 10 mM DMSO and stored at −20° C. For in vivo tests, the compounds were dissolved in DMSO and neutralized by Tween 80 (DMSO:Tween=1:1) and further neutralized by PBS (pH 7.4). The final concentrations of DMSO and Tween-80 were 5%."}, "786-O cell or A549 cell": {"tested_on": "786-O cell or A549 cell", "assay": "Cell morphology and survival rate after 4 to 8 hours incubation", "assay_type": "cell-based, human"}, "pSTAT3": {"tested_on": "pSTAT3", "assay": "Effects on STAT3 phosphorylation in A549 cell line", "assay_type": "cell-based, human", "conditions": "10 μM", "protocol": "as §1"}, "cancer cell xenograft": {"tested_on": "cancer cell xenograft", "assay": "Pharmacodynamic tests on mice xenograft transplantation model", "assay_type": "in vivo", "protocol": "as §1\n5×10^6 cancer cells were subcutaneously injected to the right side of mouse. Drug was intraperitoneally injected at dosages of 1.5 mg/kg, 7.5 mg/kg, 30 mg/kg to the mice, once a day, for 2 weeks when average tumor size reached 75 to 150 mm^3. The size of the tumor was measured every other day. […] Compound 1 had less efficacy.\nWe then performed the test through oral route. 5×10^6 cancer cells were subcutaneously injected to the right side of mouse. Drug was orally administered at dosages of 5 mg/kg, 15 mg/kg, 45 mg/kg to the mice, once a day, for 2 weeks when average tumor size reached 75 to 150 mm^3. The size of the tumor was measured every other day."}, "[4]": {"assay": "Oral route (intragastric gavage) study of Sunitinib and compounds 1 and 2 in mice", "assay_type": "in vivo", "design": "AUCpo: unit not given beside the values", "conditions": "mice, intragastric gavage", "excerpt": "Animal experiments: 24 mice in each group were divided into 8 sub-groups."}, "[5]": {"assay": "Stability of compounds 1 and 2 in MeOH stock solution and with biomass", "assay_type": "physicochemical", "excerpt": "No prodrug was detected in organs except for spleen during processing. […] The prodrugs may be converted to Sunitinib or other metabolite during processing or in vivo."}, "[6]": {"conditions": "oral once a day for 14 days, 175 mg/kg"}, "[7]": {"conditions": "repeated test, oral once a day, 200 mg/kg"}, "[8]": {"conditions": "5.13 mg/kg Compound 1, 5.32 mg/kg Compound 2, 5.14 mg/kg Sunitinib malate, All (sum of organs and plasma)"}, "[9]": {"conditions": "5.13 mg/kg Compound 1, 5.32 mg/kg Compound 2, 5.14 mg/kg Sunitinib malate, heart"}, "[10]": {"conditions": "5.13 mg/kg Compound 1, 5.32 mg/kg Compound 2, 5.14 mg/kg Sunitinib malate, kidney"}, "[11]": {"conditions": "5.13 mg/kg Compound 1, 5.32 mg/kg Compound 2, 5.14 mg/kg Sunitinib malate, liver"}, "[12]": {"conditions": "5.13 mg/kg Compound 1, 5.32 mg/kg Compound 2, 5.14 mg/kg Sunitinib malate, lung"}, "[13]": {"conditions": "5.13 mg/kg Compound 1, 5.32 mg/kg Compound 2, 5.14 mg/kg Sunitinib malate, plasma"}, "[14]": {"conditions": "5.13 mg/kg Compound 1, 5.32 mg/kg Compound 2, 5.14 mg/kg Sunitinib malate, spleen"}, "[15]": {"conditions": "19.248 mg/kg Compound 1, 20 mg/kg Compound 2, 20 mg/kg Sunitinib malate"}}, "data": [{"compound": "CCN(CC)CCNC(=O)c1c(C)[nH]c(C=C2C(=O)N(CC(=O)Oc3ccccc3)c3ccc(F)cc32)c1C", "note": "[Compound 2, N-[2-(diethylamino)ethyl]-5-[(5-fluoro-2-oxo-1-(phenylcarboxymethyl)-2,3-indolin-3-ylmethylene)]-2,4-dimethyl-1H-pyrrolidine-3-carboxamide]", "values": [{"measurement": "critical biochemical index (AST, ALT, CHE, urate, blood urea nitrogen, glucose, LDH, CK, CKMB)", "setting": "[1]; blood after 14-day treatment, 200 mg/kg", "value": "except for AST and ALT, these indices were all within normal ranges"}, {"measurement": "body weights increased in average", "setting": "[1]; [6]", "value": 6.0, "unit": "%"}, {"measurement": "condition of the mice", "setting": "[1]; [6]", "value": "performed similarly with negative control group"}, {"measurement": "influence on body weight", "setting": "[1]; repeated test, oral once a day, 100 mg/kg", "value": "little influence on body weight"}, {"measurement": "body weights increased in average", "setting": "[1]; [7]", "value": 6.0, "unit": "%"}, {"measurement": "condition of the mice", "setting": "[1]; [7]", "value": "performed similarly with negative control group"}, {"measurement": "AUC", "setting": "[2]; [8]", "value": 3926.9, "unit": "ng·h/mL"}, {"measurement": "Cmax", "setting": "[2]; [8]", "value": 2673.1, "unit": "ng/mL"}, {"measurement": "AUC", "setting": "[2]; [9]", "value": 97.0, "unit": "ng·h/mL"}, {"measurement": "Cmax", "setting": "[2]; [9]", "value": 122.4, "unit": "ng/mL"}, {"measurement": "AUC", "setting": "[2]; [10]", "value": 474.2, "unit": "ng·h/mL"}, {"measurement": "Cmax", "setting": "[2]; [10]", "value": 258.0, "unit": "ng/mL"}, {"measurement": "AUC", "setting": "[2]; [11]", "value": 1047.1, "unit": "ng·h/mL"}, {"measurement": "Cmax", "setting": "[2]; [11]", "value": 742.7, "unit": "ng/mL"}, {"measurement": "AUC", "setting": "[2]; [12]", "value": 1235.0, "unit": "ng·h/mL"}, {"measurement": "Cmax", "setting": "[2]; [12]", "value": 763.8, "unit": "ng/mL"}, {"measurement": "AUC", "setting": "[2]; [13]", "value": 408.8, "unit": "ng·h/mL"}, {"measurement": "AUCall", "setting": "[2]; [13]", "value": 408.8, "unit": "ng·h/mL"}, {"measurement": "Cl", "setting": "[2]; [13]", "value": 324.9, "unit": "mL/h"}, {"measurement": "Cmax", "setting": "[2]; [13]", "value": 564.4, "unit": "ng/mL"}, {"measurement": "Tmax", "setting": "[2]; [13]", "value": 4.8, "unit": "min"}, {"measurement": "V", "setting": "[2]; [13]", "value": 406.1, "unit": "mL"}, {"measurement": "AUC", "setting": "[2]; [14]", "value": 664.8, "unit": "ng·h/mL"}, {"measurement": "Cmax", "setting": "[2]; [14]", "value": 221.8, "unit": "ng/mL"}, {"measurement": "AUCiv", "setting": "[2]; Div 3.86, in ng·h/mL", "value": 408.8}, {"measurement": "Cmax, times than that of the control", "setting": "[2]; control = Sunitinib", "value": "approx. 5 times"}, {"measurement": "RTE analysis: distribution proportions in organs", "setting": "[2]; vs Sunitinib control", "value": "increased distribution proportions in spleen and lung, decreased proportions in heart and kidney but great enhancement in plasma"}, {"measurement": "RE", "setting": "[2]; vs Sunitinib control, heart", "value": 0.13}, {"measurement": "RTE", "setting": "[2]; vs Sunitinib control, heart", "value": "−0.55"}, {"measurement": "RE", "setting": "[2]; vs Sunitinib control, kidney", "value": 0.16}, {"measurement": "RTE", "setting": "[2]; vs Sunitinib control, kidney", "value": "−0.45"}, {"measurement": "RE", "setting": "[2]; vs Sunitinib control, liver", "value": 0.47}, {"measurement": "RTE", "setting": "[2]; vs Sunitinib control, liver", "value": 0.66}, {"measurement": "RE", "setting": "[2]; vs Sunitinib control, lung", "value": 0.28}, {"measurement": "RTE", "setting": "[2]; vs Sunitinib control, lung", "value": "−0.01"}, {"measurement": "RE", "setting": "[2]; vs Sunitinib control, plasma", "value": 1.12}, {"measurement": "RTE", "setting": "[2]; vs Sunitinib control, plasma", "value": 2.93}, {"measurement": "RE", "setting": "[2]; vs Sunitinib control, spleen", "value": 0.22}, {"measurement": "RTE", "setting": "[2]; vs Sunitinib control, spleen", "value": "−0.23"}, {"measurement": "IC50 values among several cell lines", "setting": "[3]", "value": "comparable"}, {"measurement": "tumor killing effects / cytotoxicity", "setting": "[3]", "value": "relatively strong tumor killing effects"}, {"measurement": "cell survival", "setting": "786-O cell or A549 cell; 786-O cell or A549 cell, incubated for 8 hours", "value": "mass cell death"}, {"measurement": "cell morphology", "setting": "786-O cell or A549 cell; cancer cells incubated for 4 hours", "value": "changed to round and suffered from stress"}, {"measurement": "inhibition of pSTAT3", "setting": "pSTAT3", "value": "strong inhibition"}, {"measurement": "efficacy on tumor size", "setting": "cancer cell xenograft; intraperitoneally injected 1.5, 7.5, 30 mg/kg once a day for 2 weeks", "value": "improved efficacy than Sunitinib"}, {"measurement": "efficacy on tumor size", "setting": "cancer cell xenograft; orally administered 5, 15, 45 mg/kg once a day for 2 weeks", "value": "improved efficacy than Sunitinib"}, {"measurement": "AUC, times higher than Sunitinib", "setting": "[4]", "value": "approx. 3.5 times"}, {"measurement": "AUC0→∞", "setting": "[4]; [15]", "value": 61.5, "unit": "ng·h/mL"}, {"measurement": "Cl", "setting": "[4]; [15]", "value": 4094.7, "unit": "mL/h"}, {"measurement": "Cmax", "setting": "[4]; [15]", "value": 27.00, "unit": "ng/mL"}, {"measurement": "Tmax", "setting": "[4]; [15]", "value": 1.50, "unit": "h"}, {"measurement": "t1/2", "setting": "[4]; [15]", "value": 3.89, "unit": "h"}, {"measurement": "AUCpo", "setting": "[4]; Dpo 15.00, in ng·h/mL", "value": 951.1}, {"measurement": "stability in the event of coexisting with biomass", "setting": "[5]; coexisting with biomass", "value": "easy to degrade"}, {"measurement": "stability in MeOH stock solution", "setting": "[5]; stability test period: 7 days", "value": "stable"}]}]}
